Source: ChEMBL document CHEMBL1614632, “Trend analysis of a database of intravenous pharmacokinetic parameters in humans for 670 drug compounds” (Drug Metab Dispos, 2008)

Legend:
clinical [1] = details: human, in vivo, iv, t1/2
clinical [2] = details: human, in vivo, iv
clinical [3] = details: human, in vivo, iv, CL
clinical [4] = details: human, in vivo, iv, Vdss
clinical [5] = details: human, in vivo, iv; remark: listed apart in the source
[6] = human, in vivo, iv
[7] = human, in vivo, iv; remark: listed apart in the source

| SMILES | half-life (clinical [1]) | MRT (clinical [2]) | clearance (clinical [3]) | Vd (clinical [4]) | fraction unbound (clinical [5]) | Vdss [6] | MRT [7] |
| --- | --- | --- | --- | --- | --- | --- | --- |
| COc1cc([C@@H]2c3cc4c(cc3[C@@H](O[C@@H]3O[C@@H]5CO[C@@H](c6cccs6)O[C@H]5[C@H](O)[C@H]3O)[C@H]3COC(=O)[C@H]23)OCO4)cc(OC)c1O [TENIPOSIDE] | 16 h | 37 h | 0.19 mL/min/kg | 0.41 L/kg | 0.0044 | – | – |
| C[C@H](Cn1cnc2c(N)ncnc21)OCP(=O)(O)O [TENOFOVIR ANHYDROUS] | 5.8 h | 3.8 h | 3.1 mL/min/kg | 0.83 L/kg | 0.93 | – | – |
| O=C1CCC(N2C(=O)c3ccccc3C2=O)C(=O)N1 (centres undefined) [THALIDOMIDE] | 4.7 h | 4.3 h | 3.4 mL/min/kg | 0.95 L/kg | 0.4 | – | – |
| CCCC(C)C1(CC)C(=O)NC(=S)NC1=O (centres undefined) [THIOPENTAL] | 2 h | 2.4 h | 8.2 mL/min/kg | 1.2 L/kg | 0.14 | – | – |
| CC1(C)S[C@@H]2[C@H](NC(=O)[C@H](C(=O)O)c3ccsc3)C(=O)N2[C@H]1C(=O)O [TICARCILLIN] | 1 h | 1.5 h | 1.8 mL/min/kg | 0.16 L/kg | 0.55 | – | – |
| CN(C)c1cc(NC(=O)CNC(C)(C)C)c(O)c2c1C[C@H]1C[C@H]3[C@H](N(C)C)C(O)=C(C(N)=O)C(=O)[C@@]3(O)C(O)=C1C2=O [TIGECYCLINE] | 48 h | 53 h | 3.8 mL/min/kg | 12 L/kg | 0.2 | – | – |
| CCOC(=O)C1(c2ccccc2)CCC=CC1N(C)C (centres undefined) [TILIDINE] | 5 h | 4.2 h | 16 mL/min/kg | 4 L/kg | 0.21 | – | – |
| CCCCS(=O)(=O)N[C@@H](Cc1ccc(OCCCCC2CCNCC2)cc1)C(=O)O [TIROFIBAN] | 1.6 h | – | – | – | 0.36 | 0.99 L/kg | 1.8 h |
| NC[C@H]1O[C@H](O[C@H]2[C@H](O)[C@@H](O[C@H]3O[C@H](CO)[C@@H](O)[C@H](N)[C@H]3O)[C@H](N)C[C@@H]2N)[C@H](N)C[C@@H]1O [TOBRAMYCIN] | 2 h | 2.4 h | 1.6 mL/min/kg | 0.23 L/kg | 1 | – | – |
| Cc1ccccc1OCC(O)CNCCOc1ccc(C(N)=O)cc1 (centres undefined) [TOLAMOLOL] | 2.5 h | 4.8 h | 14 mL/min/kg | 4 L/kg | 0.089 | – | – |
| Cc1ccc(C(=O)c2cc(O)c(O)c([N+](=O)[O-])c2)cc1 [TOLCAPONE] | 1.1 h | 1.1 h | 1.9 mL/min/kg | 0.12 L/kg | 0.0012 | – | – |
| Cc1cccc(N2CC(CO)OC2=O)c1 (centres undefined) [TOLOXATONE] | 1.6 h | 2.3 h | 11 mL/min/kg | 1.5 L/kg | 0.49 | – | – |
| C[C@@H](O)[C@H]1C(=O)N2C(C(=O)O)=C(S[C@H]3C[C@@H](C(=O)N4CC[C@H](NC(=O)CNC(=N)N)C4)N(C)C3)[C@H](C)[C@H]12 [TOMOPENEM] | 1.7 h | 2 h | 1.9 mL/min/kg | 0.23 L/kg | 0.91 | – | – |
| C[C@@H]([C@@H](O)c1ccc(O)cc1)N1CCC(O)(c2ccccc2)CC1 [TRAXOPRODIL] | 3.7 h | 2.6 h | 27 mL/min/kg | 4.4 L/kg | 0.63 | – | – |
| CC1(C)O[C@@H]2C[C@H]3[C@@H]4CCC5=CC(=O)C=C[C@]5(C)[C@@]4(F)[C@@H](O)C[C@]3(C)[C@]2(C(=O)CO)O1 [TRIAMCINOLONE ACETONIDE] | 2.4 h | 2.5 h | 9.4 mL/min/kg | 1.4 L/kg | 0.2 | – | – |
| COc1cc(NCc2ccc3nc(N)nc(N)c3c2C)cc(OC)c1OC [TRIMETREXATE] | 17 h | 17 h | 0.77 mL/min/kg | 0.77 L/kg | 0.05 | – | – |
| CC(CN(C)C)CN1c2ccccc2CCc2ccccc21 (centres undefined) [TRIMIPRAMINE] | 23 h | 17 h | 16 mL/min/kg | 16 L/kg | 0.051 | – | – |
| C/C=C/C[C@@H](C)C(=O)[C@H]1C(=O)N[C@@H](C(C)C)C(=O)N(C)CC(=O)N(C)[C@@H](CC(C)C)C(=O)N[C@@H](C(C)C)C(=O)N(C)[C@@H](CC(C)C)C(=O)N[C@@H](C)C(=O)N[C@H](C)C(=O)N(C)[C@@H](CC(C)C)C(=O)N(C)[C@@H](CC(C)C)C(=O)N(C)[C@@H](C(C)C)C(=O)N1C [VALSPODAR] | 10 h | 12 h | 2.6 mL/min/kg | 1.8 L/kg | 0.022 | – | – |
| CC(=O)O[C@H]1C[C@@H]2CC[C@@H]3[C@H](CC[C@@]4(C)[C@H]3C[C@H]([N+]3(C)CCCCC3)[C@@H]4OC(C)=O)[C@@]2(C)C[C@@H]1N1CCCCC1.[Br-] [VECURONIUM BROMIDE] | 1.4 h | 1.1 h | 4.5 mL/min/kg | 0.3 L/kg | 0.25 | – | – |
| O.O=P(O)(O)C(O)(Cn1ccnc1)P(=O)(O)O [ZOLEDRONIC ACID] | 11 h | 4.5 h | 2.2 mL/min/kg | 0.6 L/kg | 0.78 | – | – |
